According to US20210300940A1 (Merck Patent GmbH, priority 2018, published 2021):
pIC50: −log10 of the molar value.

Columns and labels:
TLR7 = target: T1, TLR7 (Homo sapiens, UniProt Q9NYK1); experiment: HEK/293 TLR7 Cell Assay; assay type: cell-based; conditions: TLR7/NFKb HEK cells, R848 agonist 10 uM final concentration, Steady-Glo readout; read-out: TLR7 potency
T1 construct: expressed in transfected cells; host or cells: HEK/293 cells carrying TLR7 and an NF-kB luciferase reporter
T1 sequence (Q9NYK1 27-1049): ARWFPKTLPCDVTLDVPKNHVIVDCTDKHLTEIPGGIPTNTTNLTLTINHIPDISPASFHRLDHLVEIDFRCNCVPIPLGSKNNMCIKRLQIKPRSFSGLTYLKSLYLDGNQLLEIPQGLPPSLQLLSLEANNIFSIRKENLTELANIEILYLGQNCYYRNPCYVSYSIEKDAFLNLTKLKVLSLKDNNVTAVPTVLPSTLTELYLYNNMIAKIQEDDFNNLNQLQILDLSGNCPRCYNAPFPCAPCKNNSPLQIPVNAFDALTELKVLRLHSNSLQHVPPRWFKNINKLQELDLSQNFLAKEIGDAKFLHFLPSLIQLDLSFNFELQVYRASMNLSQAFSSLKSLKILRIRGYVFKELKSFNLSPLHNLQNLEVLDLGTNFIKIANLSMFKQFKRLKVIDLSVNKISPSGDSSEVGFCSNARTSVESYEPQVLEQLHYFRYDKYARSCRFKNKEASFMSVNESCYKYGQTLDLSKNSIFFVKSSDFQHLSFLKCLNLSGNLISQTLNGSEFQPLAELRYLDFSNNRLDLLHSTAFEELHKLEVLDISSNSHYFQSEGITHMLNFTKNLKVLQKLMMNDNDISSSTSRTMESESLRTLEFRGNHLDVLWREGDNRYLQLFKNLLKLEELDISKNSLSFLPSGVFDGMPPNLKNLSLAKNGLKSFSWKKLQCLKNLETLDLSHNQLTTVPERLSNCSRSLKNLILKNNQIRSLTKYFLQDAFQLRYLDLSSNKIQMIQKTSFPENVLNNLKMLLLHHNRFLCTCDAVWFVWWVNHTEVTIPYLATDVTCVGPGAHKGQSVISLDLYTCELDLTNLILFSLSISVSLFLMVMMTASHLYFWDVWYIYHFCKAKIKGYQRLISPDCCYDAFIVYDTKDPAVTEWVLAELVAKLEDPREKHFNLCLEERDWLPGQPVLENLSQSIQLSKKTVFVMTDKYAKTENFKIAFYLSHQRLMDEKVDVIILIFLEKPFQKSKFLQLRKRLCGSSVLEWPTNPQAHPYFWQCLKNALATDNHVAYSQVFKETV
Experimental: (§1) Example 389: HEK/293 TLR7 Cell Assay Into 384 CulturePlates (Corning 3765) was placed 5000 c/w of TLR7/NFKb HEK cells in 30 uL DMEM without Phenol red (gibco #31053-028) and 10% heat inactivated fetal bovine serum, 10% penicillin-streptomycin, and 2 mM L-Glutamine. The cells were incubated for 24 h at 37° C., 10% carbon dioxide and 90% relative humidity. 3 uL of controls, standards, and compounds were dispensed into wells, incubated for 30 min then 3 uL of R848 agonist (10 uM final concentration) was added in 20 mM Hepes. After incubation for 5 hours, they were allowed to stand at room temperature for 15 min. To this was added 10 uL of Steady-Glo substrate reagent and shake assay plate for 5 min at 1500 rpm. The assay plate was allowed to sit for 30 min at room temperature and then the plate was read on EnVision.

TLR8 = target: T2, TLR8 (Homo sapiens, UniProt Q9NR97); experiment: HEK/293 TLR8 Cell Assay; assay type: cell-based; conditions: HEK cells, R848 agonist 30 uM final concentration, Steady-Glo readout; read-out: TLR8 potency
T2 construct: expressed in transfected cells; host or cells: HEK/293 reporter cells (NF-kB luciferase)
T2 sequence (Q9NR97 27-1041): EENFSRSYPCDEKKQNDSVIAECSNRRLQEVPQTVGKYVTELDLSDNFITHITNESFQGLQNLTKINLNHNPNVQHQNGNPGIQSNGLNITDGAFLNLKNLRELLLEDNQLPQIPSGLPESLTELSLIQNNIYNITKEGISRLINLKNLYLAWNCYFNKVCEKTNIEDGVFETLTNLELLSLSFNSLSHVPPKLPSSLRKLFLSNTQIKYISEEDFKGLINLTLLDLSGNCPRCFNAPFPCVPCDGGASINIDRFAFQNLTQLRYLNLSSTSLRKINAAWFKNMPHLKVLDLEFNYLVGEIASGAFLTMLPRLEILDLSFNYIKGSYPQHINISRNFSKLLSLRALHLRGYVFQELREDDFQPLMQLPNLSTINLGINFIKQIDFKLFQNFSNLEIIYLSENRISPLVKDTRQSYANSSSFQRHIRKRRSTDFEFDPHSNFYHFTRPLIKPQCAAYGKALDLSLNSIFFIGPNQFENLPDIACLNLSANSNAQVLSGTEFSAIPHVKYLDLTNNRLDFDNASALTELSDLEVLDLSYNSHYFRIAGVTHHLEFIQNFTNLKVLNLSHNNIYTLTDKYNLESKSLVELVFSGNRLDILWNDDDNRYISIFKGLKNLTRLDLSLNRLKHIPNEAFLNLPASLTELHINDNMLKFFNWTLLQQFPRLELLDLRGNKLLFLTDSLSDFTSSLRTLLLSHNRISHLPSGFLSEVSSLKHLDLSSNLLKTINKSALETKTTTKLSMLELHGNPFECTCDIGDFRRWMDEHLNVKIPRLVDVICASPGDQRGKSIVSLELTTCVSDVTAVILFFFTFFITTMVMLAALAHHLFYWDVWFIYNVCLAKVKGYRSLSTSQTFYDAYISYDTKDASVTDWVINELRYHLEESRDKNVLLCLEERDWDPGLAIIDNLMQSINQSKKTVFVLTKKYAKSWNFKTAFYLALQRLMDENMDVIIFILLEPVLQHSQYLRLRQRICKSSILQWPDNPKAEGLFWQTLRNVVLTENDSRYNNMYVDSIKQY
Experimental: as §1, with “Example 390:” for “Example 389:”, “HEK/293 TLR8” for “HEK/293 TLR7”, “serum, 1%” for “serum, 10%”, “agonist (30” for “agonist (10”

Compound	pIC50 (TLR7)	pIC50 (TLR8)
N#Cc1ccc(N2C[C@H](NC(=O)C3(F)CCNC3)C[C@H](C(F)(F)F)C2)c2cccnc12 (stereo partly drawn) [Example 206, N-[(3R,5S)-1-(8-cyanoquinolin-5-yl)-5-(trifluoromethyl)piperidin-3-yl]-3-fluoropyrrolidine-3-carboxamide]	6.82 to 7.12	6.82 to 7.12
C[C@H]1C[C@@H](NC(=O)CC2(F)CCNCC2)CN(c2ccc(C#N)c3nccnc23)C1 [Example 114, N-[(3R,5S)-1-(8-cyanoquinoxalin-5-yl)-5-methylpiperidin-3-yl]-2-(4-fluoropiperidin-4-yl)acetamide]	> 7.12	> 7.12
C[C@@H]1CN(c2ccc(C#N)c3nccnc23)C[C@H](CSCC(O)CO)O1 (stereo partly drawn) [Example 227, 8-[(2R,6R)-2-(2,3-Dihydroxy-propylsulfanylmethyl)-6-methyl-morpholin-4-yl]-quinoxaline-5-carbonitrile]	6.82 to 7.12	> 7.12
C[C@H]1C[C@@H](NCC2(O)CCOCC2)CN(c2ccc(C#N)c3nccnc23)C1 [Example 14, 8-{(3R,5S)-3-[(4-Hydroxy-tetrahydro-pyran-4-ylmethyl)-amino]-5-methyl-piperidin-1-yl}-quinoxaline-5-carbonitrile]	> 7.12	> 7.12
C[C@@H]1CN(c2ccc(C#N)c3ncncc23)C[C@H](CNC(=O)[C@@]2(F)CCNC2)O1 (single isomer, unassigned) [Example 344]	> 7.12	> 7.12
N#Cc1ncc(N2C[C@H](N)C[C@H](C(F)(F)F)C2)c2cccnc12 [Example 9, 5-((3R,5S)-3-Amino-5-trifluoromethyl-piperidin-1-yl)-[1,7]naphthyridine-8-carbonitrile]	> 7.12	6.82 to 7.12
C[C@H]1C[C@@H](N)CN(c2cc(F)c(C#N)c3ncccc23)C1 [Example 57, 5-((3R,5S)-3-Amino-5-methyl-piperidin-1-yl)-7-fluoro-quinoline-8-carbonitrile]	> 7.12	> 7.12

The next lines start with the values.

pIC50 (TLR7)	pIC50 (TLR8)	Compound
6.82 to 7.12	> 7.12	C[C@@H]1CN(c2cnc(C#N)c3ncccc23)C[C@H](CNC(=O)C2(F)CCCNC2)O1 (stereo partly drawn) [Example 333, N-{[(2S,6R)-4-(8-cyano-1,7-naphthyridin-5-yl)-6-methylmorpholin-2-yl]methyl}-3-fluoropiperidine-3-carboxamide]
> 7.12	> 7.12	C[C@H]1C[C@@H](NCC(=O)N2CCOCC2)CN(c2ccc(C(F)(F)F)c3ncccc23)C1 [Example 18, 2-{[(3R,5S)-5-methyl-1-[8-(trifluoromethyl)quinolin-5-yl]piperidin-3-yl]amino}-1-(morpholin-4-yl)ethan-1-one]
> 7.12	> 7.12	C[C@H](N)C(=O)N[C@@H]1C[C@H](C(F)(F)F)CN(c2ccc(C(F)(F)F)c3ncccc23)C1 [Example 171, (S)-2-Amino-N-[(3R,5S)-5-trifluoromethyl-1-(8-trifluoromethyl-quinolin-5-yl)-piperidin-3-yl]-propionamide]
> 7.12	> 7.12	C[C@@H]1CN(c2cnc(C#N)c3ncccc23)C[C@H](CN2CCC(N)C(F)(F)C2)O1 (stereo partly drawn) [Example 369, 5-[(2S,6R)-2-(4-Amino-3,3-difluoro-piperidin-1-ylmethyl)-6-methyl-morpholin-4-yl]-[1,7]naphthyridine-8-carbonitrile]
< 6.82	> 7.12	CCN(CC)CCO[C@@H]1C[C@H](C)CN(c2ccc(C(F)(F)F)c3ncccc23)C1 (relative stereo) [Example 4, diethyl(2-[[cis-5-methyl-1-[8-(trifluoromethyl)quinolin-5-yl]piperidin-3-yl]oxy]ethyl)amine]
> 7.12	> 7.12	CONC(=O)CCCN[C@@H]1C[C@H](C)CN(c2ccc(C(F)(F)F)c3nccnc23)C1 [Example 52, N-Methoxy-4-[(3R,5S)-5-methyl-1-(8-trifluoromethyl-quinoxalin-5-yl)-piperidin-3-ylamino]-butyramide]
> 7.12	> 7.12	CONC(=O)CCN[C@@H]1C[C@H](C)CN(c2ccc(C(F)(F)F)c3ncccc23)C1 [Example 55, N-Methoxy-3-[(3R,5S)-5-methyl-1-(8-trifluoromethyl-quinolin-5-yl)-piperidin-3-ylamino]-propionamide]
6.82 to 7.12	< 6.82	CC(C(=O)N[C@@H]1C[C@H](C)CN(c2ccc(C#N)c3ncncc23)C1)N1CCN(C)CC1 (single isomer, unassigned) [Example 96]
< 6.82	< 6.82	C[C@@H]1CN(c2cnc(C#N)c3ncccc23)C[C@H](CNCC(O)CF)O1 (stereo partly drawn) [Example 373, 5-{(2S,6R)-2-[(3-Fluoro-2-hydroxy-propylamino)-methyl]-6-methyl-morpholin-4-yl}-[1,7]naphthyridine-8-carbonitrile]
> 7.12	> 7.12	C[C@H]1C[C@@H](NCCN2CCOC2=O)CN(c2ccc(C(F)(F)F)c3nccnc23)C1 [Example 31, 3-{2-[(3R,5S)-5-Methyl-1-(8-trifluoromethyl-quinoxalin-5-yl)-piperidin-3-ylamino]-ethyl}-oxazolidin-2-one formic acid]
6.82 to 7.12	> 7.12	CN1CCN(CC(=O)N[C@@H]2C[C@H](C(F)(F)F)CN(c3ccc(C#N)c4ncccc34)C2)CC1 [Example 82, N-((3R,5S)-1-(8-cyanoquinolin-5-yl)-5-(trifluoromethyl)piperidin-3-yl)-2-(4-methylpiperazin-1-yl)acetamide]
